Values quoted from earlier work, collected in US20170202917A1, “PHARMACEUTICAL COMPOSITION FOR PREVENTING OR TREATING SKIN RASH” (DAEWOONG PHARMACEUTICAL CO., LTD., priority 2014, published 2017).

Tests used:
[1] = system: skin rashes; conditions: prophylactic treatment

Compound | overall incidence of erlotinib-related skin effects (ERSEs) (NSCLC and PC clinical trials) | incidence of grade 3-4 ERSEs (NSCLC and PC clinical trials, of the patients) | time to development of rash after starting treatment (rash above the waist) | improvement in skin rashes compared with placebo [1]
C#Cc1cccc(Nc2ncnc3cc(OCCOC)c(OCCOC)cc23)c1 [erlotinib] | 75% | about 10% | 7 to 10 days | 
CN(C)[C@@H]1C(O)=C(C(N)=O)C(=O)[C@@]2(O)C(O)=C3C(=O)c4c(O)cccc4[C@@](C)(O)[C@H]3C[C@@H]12 [tetracycline] |  |  |  | 30%
